The test system of this series is splenocytes from TFA-S100 immunized BALB/c mice. The settings on record: for activation of T cells (splenocyte proliferation, 3H thymidine incorporation / proliferation index): 0.1, 0.5 or 1 ug/mL epitope, splenocytes two weeks after TFA-S100 immunization; for recognition by DILI-specific T cells and B cells: summary of mouse splenocyte proliferation and human serum ELISA. The procedure:
FIG. 4. Splenocyte proliferation assays with candidate CYP2E1 epitopes.
As described above, BALB/c mice were immunized with TFA-S100. Splenocytes from BALB/c mice immunized with S100 in CFA plus PT or CFA and PT alone were used as controls. Splenocyte isolation was performed using basic immunological techniques. Briefly, spleens were harvested two weeks after immunization. Spleens were mashed between two frosted glass slides, and tissue debris was removed by filtering the sample through a 70 μm cell strainer. The remaining cells were washed with sterile phosphate buffered saline/2% fetal calf serum (PBS/2% FCS) and centrifuged at 1500 rpm for 10 minutes using a refrigerated desktop centrifuge. Red cells were lysed using ACK lysing buffer. The remaining cells were washed with RPMI-10% HEPES and filtered through a 70 μm cell strainer. The splenocytes were stored in RPMI complete media with 10% FCS (RPMI-10) at a final concentration of 2.5 million cells per 1 mL of media.
For the proliferation assays, 2.5×10^5 splenocytes (100 μl) were added to each well of a 96 well plate with 0.1 μg/mL, 0.5 μg/mL, or 1 μg/mL of a candidate epitope. As controls, media or concanavalin A (Con A) were also tested in the proliferation assays. Plates were incubated for 3 days at 37° C., 5% CO2, 95% air (humidified). Six to 18 hours prior to the 72 hour time point, the splenocytes were pulsed with 1 μCi/well ^3H thymidine (0.25 mCi/0.25 ml stock). Specifically, a 1:10 dilution (0.1 mCi/ml) of the ^3H thymidine stock solution is made by adding 200 μl of ^3H thymidine stock solution to 1800 μl of sterile RPMI. 10 μl (1 μCi) of diluted ^3H thymidine was pipetted into each well. The cells were incubated for […]. After incubation, cells were placed in −20° C. for up to 45 minutes to stop the incorporation of ^3H thymidine into proliferating cells. The splenocytes were analyzed and ^3H incorporation, an indicator of cellular proliferation, was measured.

Molecules are shown by their SMILES. Where two headings read alike, the source gives them in different places. Peptide text beside a SMILES is read from it.

Turning to `CC(C)C[C@H](NC(=O)[C@H](CC(C)C)NC(=O)[C@H](CC(C)C)NC(=O)[C@H](Cc1ccccc1)NC(=O)[C@H](C)NC(=O)[C@H](C)NC(=O)[C@H](Cc1c[nH]c2ccccc12)NC(=O)[C@@H](NC(=O)[C@H](CC(C)C)NC(=O)[C@H](CC(C)C)NC(=O)[C@H](C)NC(=O)[C@@H](NC(=O)[C@@H](NC(=O)[C@@H](NC(=O)CNC(=O)[C@H](CC(C)C)NC(=O)[C@H](C)NC(=O)[C@@H](N)CO)C(C)C)[C@@H](C)O)C(C)C)C(C)C)C(=O)O` [JHDN1] (H-SALGVTVALLVWAAFLLL-OH), the “activation of T cells (splenocyte proliferation, 3H thymidine incorporation / proliferation index)” value is “able to activate T cells”.

In the case of `CC[C@H](C)[C@H](NC(=O)CN)C(=O)N[C@H](C(=O)N[C@@H](Cc1ccccc1)C(=O)N[C@@H](CC(N)=O)C(=O)N[C@@H](CC(N)=O)C(=O)NCC(=O)N1CCC[C@H]1C(=O)N[C@H](C(=O)N[C@@H](Cc1c[nH]c2ccccc12)C(=O)N[C@@H](CCCCN)C(=O)N[C@@H](CC(=O)O)C(=O)N[C@H](C(=O)N[C@@H](CCCNC(=N)N)C(=O)N[C@@H](CCCNC(=N)N)C(=O)N[C@@H](Cc1ccccc1)C(=O)N[C@@H](CO)C(=O)N[C@@H](CC(C)C)C(=O)N[C@H](C(=O)N[C@H](C(=O)N[C@@H](CC(C)C)C(=O)O)[C@@H](C)O)[C@@H](C)O)[C@@H](C)CC)[C@@H](C)O)[C@@H](C)CC` [JHDN5] (H-GIIFNNGPTWKDIRRFSLTTL-OH), the “activation of T cells (splenocyte proliferation, 3H thymidine incorporation / proliferation index)” value is “able to activate T cells”; the “recognition by DILI-specific T cells and B cells” value is “only candidate epitope that is recognized by DILI-specific T cells”. Also, for the setting “listed as Gly^113-Leu^133”, the “recognition by DILI-specific T cells and B cells” value was “recognized by DILI-specific T cells and B cells”.

For the origin of these results see patent publication US9339531B2, “Recognition of CYP2E1 epitopes” (The Johns Hopkins University, priority 2009, dated 2016).
